Laboratory results from patent publication USRE48267E1, “Variants of C-type natriuretic peptide” (priority 2009, dated 2020).

Assays:
[1] = molecular target: Recombinant human NEP (Homo sapiens, UniProt P08473); test: in vitro NEP cleavage assay (disappearance of non-cleaved CNP variant)
Outline: (§1)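 Recombinant human NEP (1 ug/mL final) incubated with 100 uM CNP variant in 0.1 M Tris, pH 7, at 37° C for various times, then quenched with EDTA (10 mM final) and heat. Samples reduced and analysed by HPLC and mass spectrometry. Half-life derived from loss of intact variant over time.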

[2] = molecular target: neutral endopeptidase (NEP) (Homo sapiens, UniProt P08473); test: in vitro; settings: human, pH 7
Outline: as §1

[3] = test system: wild type mice; settings: mouse, in vivo

Recombinant human NEP, sequence (P08473 whole entry): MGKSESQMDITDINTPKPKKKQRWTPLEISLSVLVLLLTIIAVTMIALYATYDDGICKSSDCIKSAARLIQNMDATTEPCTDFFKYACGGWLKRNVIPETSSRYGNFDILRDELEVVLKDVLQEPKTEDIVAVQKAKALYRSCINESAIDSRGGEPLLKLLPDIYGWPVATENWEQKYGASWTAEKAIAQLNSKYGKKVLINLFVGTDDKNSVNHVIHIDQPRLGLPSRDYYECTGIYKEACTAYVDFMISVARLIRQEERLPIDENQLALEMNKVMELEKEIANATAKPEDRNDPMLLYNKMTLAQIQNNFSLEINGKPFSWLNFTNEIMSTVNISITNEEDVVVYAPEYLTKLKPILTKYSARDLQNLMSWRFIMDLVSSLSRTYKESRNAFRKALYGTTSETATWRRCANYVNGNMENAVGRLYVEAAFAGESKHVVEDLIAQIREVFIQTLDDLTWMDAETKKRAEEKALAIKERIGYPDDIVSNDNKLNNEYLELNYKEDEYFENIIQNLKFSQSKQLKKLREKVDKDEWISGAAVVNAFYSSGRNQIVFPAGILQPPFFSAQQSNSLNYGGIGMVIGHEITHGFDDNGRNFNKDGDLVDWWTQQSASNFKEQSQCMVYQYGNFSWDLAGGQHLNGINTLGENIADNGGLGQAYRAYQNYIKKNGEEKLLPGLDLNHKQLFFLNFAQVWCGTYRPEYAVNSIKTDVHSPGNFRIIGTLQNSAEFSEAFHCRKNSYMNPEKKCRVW
neutral endopeptidase (NEP), sequence (P08473 whole entry): as above

resistance to NEP cleavage (in words) [1]: most resistant to NEP degradation | half-life at 100 uM [2]: > 2.67 h | anti-CNP antibodies (IgG antibody response) [3]: elicited and IgG antibody response
SMILES: CC[C@H](C)[C@@H]1NC(=O)[C@H](CCCNC(=N)N)NC(=O)[C@H](CC(=O)O)NC(=O)[C@H](CC(C)C)NC(=O)[C@H](CCCCN)NC(=O)[C@H](CC(C)C)NC(=O)CNC(=O)[C@H](Cc2ccccc2)NC(=O)[C@@H](NC(=O)CNC(=O)[C@H](CCCCN)NC(=O)[C@H](CO)NC(=O)[C@H](CC(C)C)NC(=O)CNC(=O)[C@H](CCCCN)NC(=O)[C@H](CCCCN)NC(=O)[C@H](CC(N)=O)NC(=O)[C@H](C)NC(=O)CNC(=O)[C@H](CCCCN)NC(=O)[C@H](Cc2ccccc2)NC(=O)[C@H](CCCNC(=N)N)NC(=O)[C@H](Cc2c[nH]cn2)NC(=O)[C@H](C)NC(=O)[C@@H](NC(=O)[C@H](CCC(=O)O)NC(=O)[C@H](CO)NC(=O)[C@H](CCCCN)NC(=O)[C@H](Cc2c[nH]cn2)NC(=O)CN)C(C)C)CSSC[C@@H](C(=O)O)NC(=O)CNC(=O)[C@H](CC(C)C)NC(=O)CNC(=O)[C@H](CO)NC(=O)[C@H](CCSC)NC(=O)[C@H](CO)NC(=O)CNC1=O [HSA-CNP27]
